Where a chain is given by its changes, count along the chain named. “And” between values parts separate entries of the source, which are not always exact repeats. Identical values can stand only once.
Columns and labels:
Assay in all cases: Intracellular calcium mobilization (Fluo-4NW) in transfected HEK293T cells
Format in all cases: cell-based
Conditions in all cases: read-out: EC50 of agonist U46619 (calcium mobilized), transiently transfected HEK293T cells, mean ± S.E
[1] = target: T1, TP A160T mutant (nsSNP variant) (Homo sapiens, UniProt P21731, A160T)
T1 construct: expressed in transfected cells; HEK293T (calcium assays)
T1 sequence (P21731 1-343 A160T): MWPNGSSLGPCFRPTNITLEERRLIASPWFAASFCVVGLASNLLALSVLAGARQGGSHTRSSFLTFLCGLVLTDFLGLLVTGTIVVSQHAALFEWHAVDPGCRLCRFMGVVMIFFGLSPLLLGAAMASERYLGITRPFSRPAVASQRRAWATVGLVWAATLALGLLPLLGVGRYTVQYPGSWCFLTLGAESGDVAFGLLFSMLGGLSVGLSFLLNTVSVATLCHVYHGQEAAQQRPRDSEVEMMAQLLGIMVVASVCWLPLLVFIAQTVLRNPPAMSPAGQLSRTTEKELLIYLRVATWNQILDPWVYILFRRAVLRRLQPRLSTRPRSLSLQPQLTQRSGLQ
Experimental: (§1) Amino acid substitutions were introduced into the synthetic TPα gene carried by the expression vector pMT4 as described previously, [29]. DNA sequences of all the mutated genes were verified by automated DNA sequencing. To minimize variations in transfection efficiency, the total amount transfected DNA was kept constant in all cases at 1 µg of DNA per 7×10^5 cells. The wild type TP or mutant genes were expressed in COS-1 cells using a DEAE-dextran based transient transfection method, [29], and in HEK293T cells using lipofectamine 2000 (Invitrogen). Except unless specified, the membranes prepared from COS-1 cells were used for radioligand binding assays and immunoblots. For intracellular calcium determination assays and immunofluorescence imaging, HEK293T cells were used. For transient transfections of HEK293T cells using the plasmid pMT4, lipofectamine 2000 (Invitrogen) mediated transfection was used as described by the manufacturer. Membranes were prepared using Buffers A and B and as described previously, [29]. The protein concentration in the resuspended membrane pellet was determined using a modified DC protein assay kit from Bio-Rad Laboratories (Hercules, CA).
(§2) Changes in intracellular calcium were measured by using the fluorescent calcium sensitive dye Fluo-4NW (Invitrogen). After 6–8 hours of transient transfection of HEK293T cells using lipofectamine 2000, 100,000 viable cells were plated into each well of a 96-well tissue culture treated BD-falcon optilux plates. Cells mock transfected with vector pMT4 alone were used as a negative control. Following 24 hours of incubation at 37°C, the media was removed and cells were incubated with the dye Fluo-4NW (Invitrogen) containing 77 µg/ml of probenecid for 1 hour, as recommended by the manufacturer. […] Dose–response curves were generated and EC50 values calculated by nonlinear regression analysis using PRISM software version 5.0 (GraphPad Software Inc, San Diego, CA) after subtracting the responses of mock-transfected cells stimulated with same concentrations of agonists.

TP A160V mutant = target: T2, TP A160V mutant (Homo sapiens, UniProt P21731, A160V)
T2 construct: expressed in transfected cells; HEK293T (calcium assays)
T2 sequence (P21731 1-343 A160V): T1 sequence (P21731 1-343 A160T) with T160V
Experimental: as §1, §2

TP G164A mutant = target: T3, TP G164A mutant (Homo sapiens, UniProt P21731, G164A)
T3 construct: expressed in transfected cells; HEK293T (calcium assays)
T3 sequence (P21731 1-343 G164A): T1 sequence (P21731 1-343 A160T) with T160A, G164A
Experimental: as §1, §2

TP G164V mutant = target: T4, TP G164V mutant (Homo sapiens, UniProt P21731, G164V)
T4 construct: expressed in transfected cells; HEK293T (calcium assays)
T4 sequence (P21731 1-343 G164V): T1 sequence (P21731 1-343 A160T) with T160A, G164V
Experimental: as §1, §2

[2] = target: T5, WT-TP (wild type human thromboxane A2 receptor TPα) (Homo sapiens, UniProt P21731)
T5 construct: expressed in transfected cells; HEK293T (calcium assays)
T5 sequence (P21731 1-343): T1 sequence (P21731 1-343 A160T) with T160A
Experimental: as §1, §2

EC50 [1]: 0.0055 ± 0.0003 µM
EC50 (TP A160V mutant): 0.0095 ± 0.0002 µM
EC50 (TP G164A mutant): 0.0025 ± 0.0002 µM
EC50 (TP G164V mutant): 0.038 ± 0.0021 µM
EC50 [2]: 0.013 µM and 0.0131 µM
SMILES: CCCCC[C@H](O)/C=C/[C@@H]1[C@@H](C/C=C\CCCC(=O)O)[C@H]2CO[C@@H]1C2 [U46619]

From publication PMC3260207, “Site-Directed Mutations and the Polymorphic Variant Ala160Thr in the Human Thromboxane Receptor Uncover a Structural Role for Transmembrane Helix 4” (PLoS ONE, 2012)
